Data on 27 molecules can be found in PubChem BioAssay AID588388 (NMMLSC, 2011).

Activity calls are given as the source filed them.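 How the source made its calls: active means half-effect dose EC50 at most 10 µM and% response shifting 30% or more across doses, valid fit; inactive means the rest.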

This assay has as its target GTPase HRas (Homo sapiens) (UniProt P01112). Description: wild-type H-Ras GTP-binding inhibitors, SAR follow-up, biochemical, multiplex bead flow cytometry, round 1 (AID 588388). As to conditions: GST-H-Ras beads, Bodipy-GTP binding, EDTA; for % response (lower = inhibition): at 100 µM (top of the series). Background: Flow cytometry measures light scatter and fluorescence of single cells or particles in a stream.

Sequence of GTPase HRas (Homo sapiens) (P01112 whole entry, looked up): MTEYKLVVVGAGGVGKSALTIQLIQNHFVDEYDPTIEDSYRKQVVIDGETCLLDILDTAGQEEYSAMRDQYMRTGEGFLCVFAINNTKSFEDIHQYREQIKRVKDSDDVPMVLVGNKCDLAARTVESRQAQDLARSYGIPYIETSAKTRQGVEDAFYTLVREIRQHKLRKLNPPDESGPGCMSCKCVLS

What is called EC50 is the concentration that produces a half-maximal response. Consider `CC1(C)Cc2c(sc(NC(=S)NC(=O)c3cccc(F)c3)c2C(=O)O)CO1`, for which the 50% effective concentration (EC50) is 290 nM. Turning to `CCOC(=O)c1c(NC(=S)NC(=O)c2ccccc2)sc2ccccc12`, the “% response (lower = inhibition)” value was “inactive”. With `CCOC(=O)c1c(NC(=O)Nc2ccc(F)cc2)sc2c1CCN(C)C2`, the “% response (lower = inhibition)” value is “inactive”.

In the case of `CCOC(=O)c1c(N)sc2ccccc12`, the “% response (lower = inhibition)” value is “inactive”. Still for that read-out and setting: for `COC(=O)c1c(N)sc2c1CC(C)(C)OC2` the value was “inactive”; for `CCOC(=O)c1c(NC(=S)Nc2ccccc2)sc2c1CC(C)(C)OC2`, “inactive”; for `CC1(C)Cc2c(sc(NC(=O)Cc3ccccc3)c2C(=O)O)CO1`, “inactive”. On the same count and under the same terms, for `CC(C)(C)OC(=O)c1c(NC(=S)NC(=O)c2ccccc2)sc2c1CCOC2` the value was “inactive”; for `CC1(C)Cc2c(sc(NC(=S)NC(=O)c3cccc(Br)c3)c2C(=O)O)CO1`, “inactive”. Consider `O=C(NC(=S)Nc1sc2c(c1C(=O)O)CCOC2)c1ccccc1`, for which the EC50 is 33 nM. Regarding `COc1ccc(C(=O)NC(=S)Nc2sc3c(c2C(=O)O)CC(C)(C)OC3)cc1`, the EC50 was 108 nM. For `CC1(C)Cc2c(sc(NC(=S)Nc3ccccc3)c2C(=O)O)CO1`, the “% response (lower = inhibition)” value was “inactive”. For `CC1(C)Cc2c(sc(NC(=S)NC(=O)c3ccccc3F)c2C(=O)O)CO1`, the EC50 was 50 nM. On the same count and under the same terms, to `COc1cccc(C(=O)NC(=S)Nc2sc3c(c2C(=O)O)CC(C)(C)OC3)c1` belongs 30 nM; to `CC1(C)Cc2c(sc(NC(=S)NC(=O)c3ccccc3)c2C(=O)O)CO1`, 78 nM. On to `Cc1ccc(Nc2nc3sc4c(c3c(=O)o2)CCN(C)C4)cc1`, for which the “% response (lower = inhibition)” value was “inactive”. For the molecule `CCOC(=O)c1c(NC(=O)NC(C)(C)C)sc2c1CCN(C)C2`, the “% response (lower = inhibition)” value is “inactive”.

As to `CC1Cc2c(sc(NC(=S)NC(=O)c3ccccc3)c2C(=O)O)CO1` (configuration not stated), the EC50 was 54 nM. Same read-out and setting: for `CC1(C)Cc2c(sc(NC(=S)NC(=O)c3ccc(Br)cc3)c2C(=O)O)CO1` the value was 257 nM; for `CC1(C)Cc2c(sc(NC(=O)NC(=O)c3ccccc3)c2C(=O)O)CO1`, 149 nM. The same measure, in the same setting: to `CC1(C)Cc2c(sc(NC(=S)NC(=O)c3ccccc3Br)c2C(=O)O)CO1` belongs 46 nM; to `CC1(C)CCc2sc(NC(=S)NC(=O)c3ccccc3)c(C(=O)O)c2C1`, 67 nM. On to `CN1CCc2c(sc(NC(=O)Nc3ccc(F)cc3)c2C(=O)O)C1`, for which the “% response (lower = inhibition)” value was “inactive”.

`CN1CCc2c(sc3nc(Nc4ccc(F)cc4)oc(=O)c23)C1`: the “% response (lower = inhibition)” value was “inactive”. Regarding `COC(=O)c1c(NC(=S)NC(=O)c2ccccc2)sc2c1CC(C)(C)OC2`, the “% response (lower = inhibition)” value is “inactive”. On the same count and under the same terms, for `CCOC(=O)c1c(NC(=O)Nc2ccc(C)cc2)sc2c1CCN(C)C2` the value was “inactive”; for `Cc1ccc(NC(=O)Nc2sc3c(c2C(=O)O)CCN(C)C3)cc1`, “inactive”.
